Assay results from patent US20200031778A1, “NOVEL 5-SUBSTITUTED IMIDAZOLYLMETHYL DERIVATIVES” (Bayer CropScience Aktiengesellschaft, priority 2016, published 2020).

experiment: Log P by HPLC on reversed phase columns (EEC directive 79/831 Annex V.A8; methods [a], [b], [c]); type: physicochemical; settings: not given
Method: Measurement of Log P values was performed according to EEC directive 79/831 Annex V.A8 by HPLC (High Performance Liquid Chromatography) on reversed phase columns with the following methods: • ^[a] Log P value is determined by measurement of LC-UV, in an acidic range, with 0.1% formic acid in water and acetonitrile as eluent (linear gradient from 10% acetonitrile to 95% acetonitrile). • ^[b] Log P value is determined by measurement of LC-UV, in a neutral range, with 0.001 molar ammonium acetate solution in water and acetonitrile as eluent (linear gradient from 10% acetonitrile to 95% acetonitrile). • ^[c] Log P value is determined by measurement of LC-UV, in an acidic range, with 0.1% phosphoric acid and acetonitrile as eluent (linear gradient from 10% acetonitrile to 95% acetonitrile).
If more than one Log P value is available within the same method, all the values are given and separated by “+”.
Calibration was done with straight-chain alkan2-ones (with 3 to 16 carbon atoms) with known Log P values (measurement of Log P values using retention times with linear interpolation between successive alkanones). Lambda-max-values were determined using UV-spectra from 200 nm to 400 nm and the peak values of the chromatographic signals.

Structure (SMILES)	LogP
N#Cc1cncn1CC(O)(c1ccc(F)c(F)c1Cl)C1(F)CC1 (stereo not shown) [I-636]	2.25^[a]
N#Cc1cncn1CC(O)(c1cnc(Br)cc1Cl)C1(F)CC1 (stereo not shown) [I-686]	1.97^[a]
OC(Cn1cncc1C(F)(F)F)c1ccc(Oc2ccc(Cl)cc2)cc1F (stereo not shown) [I-90]	3.4^8[a]
N#Cc1cncn1CC(O)(c1cc(Cl)c(F)cc1F)C1(Cl)CC1 (stereo not shown) [I-586]	2.61^[a]
CCCC(O)(Cn1cncc1C#N)c1ccc(F)cc1C(F)(F)F (stereo not shown) [I-459]	2.71^[a]
CC(O)(Cn1cncc1Br)c1ccc(Oc2ccc(Cl)cc2)cc1F (stereo not shown) [I-178]	2.44^[a]
C=CC(C)C(O)(Cn1cncc1C#N)C1(F)CC1 (stereo not shown) [I-375]	1.94^[a]
CCCC#Cc1ccc(C(O)(Cn2cncc2C#N)C2(Cl)CC2)c(F)c1 (stereo not shown) [I-652]	3.48^[a]
CC(O)(Cn1cncc1F)c1cnc(Oc2ccc(C(F)F)cc2)cc1C(F)(F)F (stereo not shown) [I-230]	2.17^[a]
OC(Cn1cncc1Cl)c1ccc(Oc2ccc(Cl)cc2)cc1 (stereo not shown) [I-15]	2.18^[a]
N#Cc1cncn1CC(O)(c1ccccc1Br)C1(Cl)CC1 (stereo not shown) [I-255]	2.37^[a]
CC(O)(Cn1cncc1C#N)c1cnc(Oc2ccc(C(F)F)cc2)cc1C(F)(F)F (stereo not shown) [I-234]	2.94^[a]
N#Cc1cncn1CC(O)(c1cc(Cl)c(F)cc1Cl)C1(Cl)CC1 (stereo not shown) [I-581]	2.70^[a]
CC(C)C(O)(Cn1cncc1C#N)c1ccc(C(F)(F)F)cc1Cl (stereo not shown) [I-426]	3.11^[a]
CC(C)(C)C(O)(Cn1cncc1C#N)c1ccc(F)c(Br)c1 (stereo not shown) [I-509]	2.97^[a]
N#Cc1cncn1CC(O)(c1ccc(F)c(Cl)c1Cl)C1(F)CC1 (stereo not shown) [I-624]	2.45^[a]
CC(O)(Cn1cncc1F)c1cnc(Oc2ccc(Cl)cc2)cc1C(F)(F)F (stereo not shown) [I-240]	2.30^[a]
N#Cc1cncn1CC(O)(c1ccc(C#CC2CC2)cc1Cl)C1(Cl)CC1 (stereo not shown) [I-361]	3.25^[a]
C/C=C(\C)C(O)(Cn1cncc1C#N)c1ccc(F)cc1F (stereo not shown) [I-396]	2.41^[a]
N#Cc1cncn1CC(O)(c1cc(Cl)c(F)cc1F)C1(F)CC1 (stereo not shown) [I-577]	2.42^[a]
Cc1c(Cl)ccc(C(O)(Cn2cncc2C#N)C2(F)CC2)c1F (stereo not shown) [I-685]	2.63^[a]
CCCC#Cc1ccc(C(O)(Cn2cncc2C#N)C2(F)CC2)c(F)c1 (stereo not shown) [I-645]	3.29^[a]

Structure (SMILES)	LogP
N#Cc1cncn1CC(O)(CCc1ccc(OC(F)(F)F)c(F)c1)C1(Cl)CC1 (stereo not shown) [I-359]	3.31^[a]
CC(O)(Cn1cncc1Cl)c1ccc(Oc2ccc(OC(F)(F)F)cc2)c(Br)c1 (stereo not shown) [I-157]	2.90^[a]
OC(Cn1cncc1Cl)c1ccc(Oc2ccc(I)cc2)cc1F (stereo not shown) [I-31]	2.51^[a]
OC(Cn1cncc1Cl)c1ccc(Oc2ccc(Br)cc2)cc1C(F)(F)F (stereo not shown) [I-20]	2.96^[a]
N#Cc1cncn1CC(O)(c1ccc(F)c(Cl)c1F)C1(F)CC1 (stereo not shown) [I-635]	2.35^[a]
N#Cc1cncn1CC(O)(c1ccc(Br)cc1Cl)C1(F)CC1 (stereo not shown) [I-376]	2.76^[a]
N#Cc1cncn1CC(O)(c1ccc(F)c(F)c1Cl)C1(Cl)CC1 (stereo not shown) [I-628]	2.41^[a]
CCCC(O)(Cn1cncc1C#N)c1ccc(C(F)(F)F)cc1Cl (stereo not shown) [I-421]	3.23^[a]
N#Cc1cncn1CC(O)(c1cc(F)cc(F)c1Cl)C1(Cl)CC1 (stereo not shown) [I-619]	2.33^[a]
CCCCC(O)(Cn1cncc1C#N)c1ccc(Cl)cc1F (stereo not shown) [I-263]	3.19^[a]
CC(C)(C)C(O)(Cn1cncc1C#N)c1ccc(Cl)cc1 (stereo not shown) [I-284]	2.74^[a]
N#Cc1cncn1CC(O)(CCCC1CCCCC1)C1CCC1 (stereo not shown) [I-665]	4.16^[a]
CC1(C(O)(Cn2cncc2C#N)c2ccc(Cl)cc2F)CC1 (stereo not shown) [I-441]	2.68^[a]
C[Si](C)(C)C=CC(O)(Cn1cncc1C#N)C1(F)CC1 (stereo not shown) [I-679]	2.77^[a]
CC(=O)c1cncn1CC(C)(O)c1cnc(Oc2ccc(C(F)(F)F)cc2)cc1Br (stereo not shown) [I-252]	2.84^[a]
C=CCOC(Cn1cncc1C#N)c1ccc(Oc2ccc(Br)cc2)cc1C(F)(F)F (stereo not shown) [I-89]	4.69^[a]
N#Cc1cncn1CC(O)(C#CCC1CCCCC1)C1(F)CC1 (stereo not shown) [I-539]	3.11^[a]
C[Si](C)(C)CC(O)(Cn1cncc1C#N)c1ccc(C(F)(F)F)cc1 (stereo not shown) [I-269]	3.55^[a]
CC(=O)c1cncn1CC(C)(O)c1ccc(Oc2ccc(C(F)(F)F)nc2)nc1C(F)(F)F (stereo not shown) [I-291]	2.27^[a]
OC(Cn1cncc1Cl)c1ccc(Oc2ccc(C(F)(F)F)cc2)c(Br)c1 (stereo not shown) [I-12]	2.75^[a]
N#Cc1cncn1CC(O)c1ccc(Oc2ccc(I)cc2)cc1F (stereo not shown) [I-49]	3.24^[a]
N#Cc1cncn1CC(O)(c1ccc(C2CC2)cc1Cl)C1CC1 (stereo not shown) [I-406]	2.92^[a]

Structure (SMILES)	LogP
N#Cc1cncn1CC(O)(c1ccc(F)cc1Cl)C1(Cl)CC1 (stereo not shown) [I-236]	2.35^[a]
CC(C)C(O)(Cn1cncc1C#N)c1ccc(Cl)cc1Br (stereo not shown) [I-416]	3.02^[a]
N#Cc1cncn1CC(O)(c1cnc(Cl)cc1Br)C1(F)CC1 (stereo not shown) [I-560]	1.98^[a]
CC(O)(Cn1cncc1F)c1ccc(Oc2ccc(Br)cc2)nc1C(F)(F)F (stereo not shown) [I-213]	2.35^[a]
CC(O)(Cn1cncc1Cl)c1ccc(Oc2ccc(C(F)(F)F)cc2)cc1 (stereo not shown) [I-161]	2.51^[a]
N#Cc1cncn1CC(O)(c1ccc(Cl)c(Cl)c1F)C1(Cl)CC1 (stereo not shown) [I-630]	2.76^[a]
N#Cc1cncn1CC(O)(c1ccc(F)c(Cl)c1)C1(F)CC1 (stereo not shown) [I-444]	2.39^[a]
N#Cc1cncn1CC(O)(c1ccc(F)cc1Cl)C1(F)CC1 (stereo not shown) [I-349]	2.22^[a]
N#Cc1cncn1CC(O)(c1cc(Cl)cc(Cl)c1Cl)C1(Cl)CC1 (stereo not shown) [I-614]	2.80^[a]
O=C(Cn1cncc1F)c1ccc(Oc2ccc(Cl)cc2)nc1C(F)(F)F [IX-106]	2.59^[a]
CC(C)(C)C(O)(Cn1cncc1C#N)c1cc(Br)cc(Br)c1 (stereo not shown) [I-490]	3.39^[a]
OC(C#CC1CCCC1)(Cn1cncc1C(F)(F)F)C1(Cl)CC1 (stereo not shown) [I-603]	3.37^[a]
N#Cc1cncn1CC(O)(c1ccc(Br)cc1Br)C1(F)CC1 (stereo not shown) [I-433]	2.71^[a]
N#Cc1cncn1CC(O)(CCC1CCCC1)C1(Cl)CC1 (stereo not shown) [I-596]	3.37^[a]
N#Cc1cncn1CC(O)(c1cc(Cl)ccc1F)C1(F)CC1 (stereo not shown) [I-522]	2.25^[a]
N#Cc1cncn1CC(O)c1ccc(Oc2ccc(Cl)cc2)cc1C(F)F (stereo not shown) [I-72]	3.09^[a]
N#Cc1cncn1CC(O)c1ccc(Oc2ccc(Cl)cc2)nc1C(F)(F)F (stereo not shown) [I-124]	3.15^[a]
NC(=S)c1cncn1CC(O)(CC1CC1)c1ccc(F)cc1F (stereo not shown) [I-484]	1.53^[a]
N#Cc1ccc(C(O)(Cn2cncc2C#N)C2(F)CC2)c(Cl)c1 (stereo not shown) [I-389]	2.04^[a]
OC(CCCC1CCCCC1)(Cn1cncc1C(F)(F)F)C1(Cl)CC1 (stereo not shown) [I-676]	5.19^[a]
N#Cc1cncn1CC(O)c1cnc(Oc2ccc(C(F)(F)F)cc2)cc1C(F)(F)F (stereo not shown) [I-111]	3.15^[a]
N#Cc1cncn1CC(O)(CCCC(Cl)CCl)C1(F)CC1 (stereo not shown) [I-678]	2.54'^[a]

Structure (SMILES)	LogP
N#Cc1cncn1CC(O)(c1cc(Cl)cc(F)c1F)C1(Cl)CC1 (stereo not shown) [I-611]	2.54^[a]
N#Cc1cncn1CC(O)(c1ccc(Cl)cc1Br)C1CC1 (stereo not shown) [I-405]	2.80^[a]
CC(O)(Cn1cncc1C#N)c1ccc(Oc2ccc(C(F)(F)F)cc2)cc1C(F)(F)F (stereo not shown) [I-206]	3.64^[a]
CC(O)(Cn1cncc1F)c1cnc(Oc2ccc(OC(F)(F)F)cc2)cc1C(F)(F)F (stereo not shown) [I-241]	2.51^[a]
N#Cc1cncn1CC(O)(c1cc(F)c(Cl)cc1F)C1(F)CC1 (stereo not shown) [I-580]	2.45^[a]
OC(Cn1cncc1F)c1ccc(Oc2ccc(C(F)F)cc2)nc1C(F)(F)F (stereo not shown) [I-148]	2.20^[a]
C[Si](C)(C)C#Cc1ccc(C(O)(Cn2cncc2C#N)C2(Cl)CC2)c(Cl)c1 (stereo not shown) [I-366]	4.24^[a]
N#Cc1cncn1CC(O)(CC1CC1)c1ccc(Cl)cc1F (stereo not shown) [I-442]	2.75^[a]
CC(=O)OC(Cn1cncc1F)c1ccc(Oc2ccc(Cl)cc2)cc1C(F)(F)F (stereo not shown) [I-104]	3.18^[a]
CCCOC(Cn1cncc1C#N)c1ccc(Oc2ccc(Cl)cc2)cc1C(F)(F)F (stereo not shown) [I-85]	4.92^[a]
C#CCOC(Cn1cncc1F)c1ccc(Oc2ccc(Cl)cc2)cc1C(F)(F)F (stereo not shown) [I-106]	3.26^[a]
N#CCOC(Cn1cncc1C#N)c1ccc(Oc2ccc(Br)cc2)cc1C(F)(F)F (stereo not shown) [I-87]	3.73^[a]
COC(Cn1cncc1C#N)c1ccc(Oc2ccc(Cl)cc2)cc1Br (stereo not shown) [I-61]	4.08^[a]
N#Cc1cncn1CC(O)(c1cc(F)ccc1Cl)C1(F)CC1 (stereo not shown) [I-439]	2.16^[a]
CC(O)(Cn1cncc1C(F)(F)F)c1ccc(Oc2ccc(I)cc2)cc1F (stereo not shown) [I-179]	4.11^[a]
C[Si](C)(C)C#CC(O)(Cn1cncc1C(F)(F)F)C1(Cl)CC1 (stereo not shown) [I-607]	3.52^[a]
CC(C)(C)C(O)(Cn1cncc1C#N)c1cc(Cl)cc(Cl)c1 (stereo not shown) [I-463]	3.22^[a]
Cc1cc(C(O)(Cn2cncc2C#N)C2(F)CC2)c(F)cc1Cl (stereo not shown) [I-507]	2.66^[a]
N#Cc1cncn1CC(O)(C#CC1CCCCC1)C1(F)CC1 (stereo not shown) [I-543]	2.64^[a]
N#Cc1cncn1CC(O)c1ccc(Oc2ccc(Cl)cc2F)nc1C(F)(F)F (stereo not shown) [I-136]	2.94^[a]

same assay, conditions: reversed phase HPLC column; method [a]: LC-UV, acidic range, 0.1% formic acid in water and acetonitrile as eluent (linear gradient from 10% to 95% acetonitrile)

Structure (SMILES)	chromatographic logP
N#Cc1cncn1CC(=O)c1ccc(Cl)cc1F [IX-147]	1.94
O=C(Cn1cncc1Br)c1ccc(F)cc1F [IX-121]	1.32
